Tests used:
[1] = target: 5-hydroxytryptamine receptor 1E (Homo sapiens) (UniProt P28566); conditions: Compound concentration 10.0 uM
[2] = target: Serine/threonine-protein kinase BRSK1 (Homo sapiens) (UniProt Q8TDC3); test: BrSK1 (h) Millipore kinase activity assay; conditions: Compound concentration 1.0 uM
[3] = target: Tyrosine-protein kinase ABL1 (Homo sapiens) (UniProt P00519); test: Abl (h) Millipore kinase activity assay; conditions: Compound concentration 1.0 uM
[4] = target: Estrogen receptor (Homo sapiens) (UniProt P03372); conditions: Compound concentration 10.0 uM
Estrogen receptor (Homo sapiens), sequence (P03372 whole entry): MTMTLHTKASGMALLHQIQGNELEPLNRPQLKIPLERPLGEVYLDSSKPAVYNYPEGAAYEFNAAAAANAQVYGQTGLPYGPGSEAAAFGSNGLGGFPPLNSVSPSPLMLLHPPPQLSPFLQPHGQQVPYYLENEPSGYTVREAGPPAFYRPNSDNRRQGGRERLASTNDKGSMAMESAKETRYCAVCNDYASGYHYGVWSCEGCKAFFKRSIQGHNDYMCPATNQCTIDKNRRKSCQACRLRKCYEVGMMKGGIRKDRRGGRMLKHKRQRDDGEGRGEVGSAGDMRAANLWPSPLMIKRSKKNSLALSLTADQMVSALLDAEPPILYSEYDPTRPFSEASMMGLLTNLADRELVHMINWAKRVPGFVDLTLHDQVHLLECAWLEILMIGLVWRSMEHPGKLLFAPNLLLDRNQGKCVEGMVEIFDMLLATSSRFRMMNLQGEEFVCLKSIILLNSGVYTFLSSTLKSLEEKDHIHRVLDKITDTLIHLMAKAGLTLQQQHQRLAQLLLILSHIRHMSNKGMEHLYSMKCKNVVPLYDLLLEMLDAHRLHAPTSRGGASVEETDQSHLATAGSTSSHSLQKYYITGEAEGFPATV

[5] = target: Protein kinase C eta type (Homo sapiens) (UniProt P24723); test: PKCeta (h) Millipore kinase activity assay; conditions: Compound concentration 1.0 uM
[6] = target: Alpha-2C adrenergic receptor (Homo sapiens) (UniProt P18825); conditions: Compound concentration 10.0 uM
Alpha-2C adrenergic receptor (Homo sapiens), sequence (P18825 whole entry): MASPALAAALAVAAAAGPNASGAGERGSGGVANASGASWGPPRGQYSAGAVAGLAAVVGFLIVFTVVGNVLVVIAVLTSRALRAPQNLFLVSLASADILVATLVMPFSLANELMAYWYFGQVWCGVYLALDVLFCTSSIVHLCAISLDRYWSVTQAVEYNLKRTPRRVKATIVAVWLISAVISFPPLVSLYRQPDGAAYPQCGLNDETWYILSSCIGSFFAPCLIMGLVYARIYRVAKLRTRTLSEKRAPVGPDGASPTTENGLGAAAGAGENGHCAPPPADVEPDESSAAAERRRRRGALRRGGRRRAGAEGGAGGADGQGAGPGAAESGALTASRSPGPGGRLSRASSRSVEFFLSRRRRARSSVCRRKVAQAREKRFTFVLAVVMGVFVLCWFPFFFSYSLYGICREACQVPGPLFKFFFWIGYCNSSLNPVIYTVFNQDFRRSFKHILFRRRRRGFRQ

[7] = target: Alpha-2B adrenergic receptor (Homo sapiens) (UniProt P18089); conditions: Compound concentration 10.0 uM
Alpha-2B adrenergic receptor (Homo sapiens), sequence (P18089 whole entry): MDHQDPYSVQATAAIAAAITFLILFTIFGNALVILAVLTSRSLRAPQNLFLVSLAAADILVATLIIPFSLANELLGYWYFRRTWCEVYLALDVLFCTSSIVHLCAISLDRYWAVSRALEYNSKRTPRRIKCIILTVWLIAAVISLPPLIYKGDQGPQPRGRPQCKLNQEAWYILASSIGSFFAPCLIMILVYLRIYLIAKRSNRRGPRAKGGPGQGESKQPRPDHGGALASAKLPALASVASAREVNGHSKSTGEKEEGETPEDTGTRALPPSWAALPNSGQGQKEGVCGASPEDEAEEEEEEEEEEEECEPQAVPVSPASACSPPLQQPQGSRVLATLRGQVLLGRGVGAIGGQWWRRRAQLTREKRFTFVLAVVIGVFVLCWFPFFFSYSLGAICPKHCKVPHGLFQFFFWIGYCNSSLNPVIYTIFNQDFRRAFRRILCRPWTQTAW

[8] = target: Sigma non-opioid intracellular receptor 1 (Homo sapiens) (UniProt Q99720); conditions: Compound concentration 10.0 uM
Sigma non-opioid intracellular receptor 1 (Homo sapiens), sequence (Q99720 whole entry): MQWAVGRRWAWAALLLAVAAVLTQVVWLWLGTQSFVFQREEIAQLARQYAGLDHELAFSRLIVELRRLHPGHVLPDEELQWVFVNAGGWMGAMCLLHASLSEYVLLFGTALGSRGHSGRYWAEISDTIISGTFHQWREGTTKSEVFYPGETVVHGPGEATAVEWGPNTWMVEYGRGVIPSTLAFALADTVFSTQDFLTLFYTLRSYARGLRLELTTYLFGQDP

[9] = target: Sigma intracellular receptor 2 (Homo sapiens) (UniProt Q5BJF2); conditions: Compound concentration 10.0 uM
Sigma intracellular receptor 2 (Homo sapiens), sequence (Q5BJF2 whole entry): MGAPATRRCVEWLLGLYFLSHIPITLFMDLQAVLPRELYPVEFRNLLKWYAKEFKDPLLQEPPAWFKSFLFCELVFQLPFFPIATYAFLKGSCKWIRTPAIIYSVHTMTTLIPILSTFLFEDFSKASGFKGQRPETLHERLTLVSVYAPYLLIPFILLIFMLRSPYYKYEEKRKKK

[10] = target: T1, 5-hydroxytryptamine receptor 1A (Homo sapiens) (UniProt P08908); conditions: Compound concentration 10.0 uM
T1 sequence (whole entry): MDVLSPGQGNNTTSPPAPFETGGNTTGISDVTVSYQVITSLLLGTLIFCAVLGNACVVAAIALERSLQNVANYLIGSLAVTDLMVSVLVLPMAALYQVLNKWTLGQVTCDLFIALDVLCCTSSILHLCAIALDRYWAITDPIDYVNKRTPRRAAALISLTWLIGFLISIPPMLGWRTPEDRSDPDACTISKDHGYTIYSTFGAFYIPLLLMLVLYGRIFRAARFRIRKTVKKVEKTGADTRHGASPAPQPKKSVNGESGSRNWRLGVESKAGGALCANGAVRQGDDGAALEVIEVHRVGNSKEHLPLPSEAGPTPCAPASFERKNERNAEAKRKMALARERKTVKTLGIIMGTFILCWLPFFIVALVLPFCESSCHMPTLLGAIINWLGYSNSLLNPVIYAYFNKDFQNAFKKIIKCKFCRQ

[11] = target: Mitogen-activated protein kinase 11 (Homo sapiens) (UniProt Q15759); test: SAPK2b (h) Millipore kinase activity assay; conditions: Compound concentration 1.0 uM
[12] = target: T2, Muscarinic acetylcholine receptor M1 (Homo sapiens) (UniProt P11229); conditions: Compound concentration 10.0 uM
T2 sequence (whole entry): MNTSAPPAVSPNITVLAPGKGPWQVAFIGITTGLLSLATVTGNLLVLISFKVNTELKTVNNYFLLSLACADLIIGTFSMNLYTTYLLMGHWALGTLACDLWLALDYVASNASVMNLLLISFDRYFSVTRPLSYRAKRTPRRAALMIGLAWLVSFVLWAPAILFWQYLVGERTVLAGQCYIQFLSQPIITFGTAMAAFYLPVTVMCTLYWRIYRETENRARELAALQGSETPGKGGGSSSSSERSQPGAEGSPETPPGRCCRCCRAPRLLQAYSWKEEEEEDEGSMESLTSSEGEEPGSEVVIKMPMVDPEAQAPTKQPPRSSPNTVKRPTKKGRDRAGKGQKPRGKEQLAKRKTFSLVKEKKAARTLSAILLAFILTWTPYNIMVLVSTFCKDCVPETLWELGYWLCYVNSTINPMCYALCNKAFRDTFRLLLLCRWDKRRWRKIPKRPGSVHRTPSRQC

[13] = target: Muscarinic acetylcholine receptor M5 (Homo sapiens) (UniProt P08912); conditions: Compound concentration 10.0 uM
Muscarinic acetylcholine receptor M5 (Homo sapiens), sequence (P08912 whole entry): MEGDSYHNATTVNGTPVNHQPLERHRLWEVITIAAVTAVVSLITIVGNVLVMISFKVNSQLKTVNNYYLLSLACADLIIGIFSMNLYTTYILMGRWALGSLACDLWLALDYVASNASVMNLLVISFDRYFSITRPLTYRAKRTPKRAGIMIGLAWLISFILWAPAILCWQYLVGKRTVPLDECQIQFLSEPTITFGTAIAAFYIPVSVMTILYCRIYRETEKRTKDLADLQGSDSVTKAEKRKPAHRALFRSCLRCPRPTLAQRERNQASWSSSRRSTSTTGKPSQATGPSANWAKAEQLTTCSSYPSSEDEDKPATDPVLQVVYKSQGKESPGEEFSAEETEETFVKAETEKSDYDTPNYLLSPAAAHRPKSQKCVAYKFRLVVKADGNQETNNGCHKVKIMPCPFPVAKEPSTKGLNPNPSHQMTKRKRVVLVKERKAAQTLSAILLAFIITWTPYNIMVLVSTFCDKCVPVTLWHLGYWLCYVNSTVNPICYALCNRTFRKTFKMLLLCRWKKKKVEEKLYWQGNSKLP

[14] = target: Eukaryotic elongation factor 2 kinase (Homo sapiens) (UniProt O00418); test: eEF-2K (h) Millipore kinase activity assay; conditions: Compound concentration 1.0 uM
Eukaryotic elongation factor 2 kinase (Homo sapiens), sequence (O00418 whole entry): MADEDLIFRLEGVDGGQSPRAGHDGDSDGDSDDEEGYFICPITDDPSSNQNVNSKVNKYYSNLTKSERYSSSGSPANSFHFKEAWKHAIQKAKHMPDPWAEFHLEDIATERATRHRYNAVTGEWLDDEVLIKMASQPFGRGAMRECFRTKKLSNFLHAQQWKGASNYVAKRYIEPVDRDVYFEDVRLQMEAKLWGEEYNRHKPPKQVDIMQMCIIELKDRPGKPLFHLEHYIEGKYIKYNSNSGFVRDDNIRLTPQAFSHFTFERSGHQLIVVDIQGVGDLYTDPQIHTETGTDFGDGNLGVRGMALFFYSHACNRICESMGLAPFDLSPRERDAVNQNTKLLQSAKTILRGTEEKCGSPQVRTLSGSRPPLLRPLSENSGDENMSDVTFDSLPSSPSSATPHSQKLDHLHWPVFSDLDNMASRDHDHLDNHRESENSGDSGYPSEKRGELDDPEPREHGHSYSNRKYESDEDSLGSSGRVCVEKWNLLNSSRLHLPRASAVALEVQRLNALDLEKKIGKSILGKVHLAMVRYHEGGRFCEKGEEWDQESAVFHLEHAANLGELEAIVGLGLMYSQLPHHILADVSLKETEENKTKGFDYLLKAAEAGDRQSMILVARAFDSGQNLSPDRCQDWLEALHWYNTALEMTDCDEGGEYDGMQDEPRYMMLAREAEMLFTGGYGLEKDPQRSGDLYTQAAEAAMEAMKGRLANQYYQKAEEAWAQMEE

[15] = target: Serine/threonine-protein kinase PLK4 (Homo sapiens) (UniProt O00444); conditions: Compound concentration 1000.0 nM
[16] = target: Dual specificity mitogen-activated protein kinase kinase 1 (Homo sapiens) (UniProt Q02750); conditions: Compound concentration 1000.0 nM
Dual specificity mitogen-activated protein kinase kinase 1 (Homo sapiens), sequence (Q02750 whole entry): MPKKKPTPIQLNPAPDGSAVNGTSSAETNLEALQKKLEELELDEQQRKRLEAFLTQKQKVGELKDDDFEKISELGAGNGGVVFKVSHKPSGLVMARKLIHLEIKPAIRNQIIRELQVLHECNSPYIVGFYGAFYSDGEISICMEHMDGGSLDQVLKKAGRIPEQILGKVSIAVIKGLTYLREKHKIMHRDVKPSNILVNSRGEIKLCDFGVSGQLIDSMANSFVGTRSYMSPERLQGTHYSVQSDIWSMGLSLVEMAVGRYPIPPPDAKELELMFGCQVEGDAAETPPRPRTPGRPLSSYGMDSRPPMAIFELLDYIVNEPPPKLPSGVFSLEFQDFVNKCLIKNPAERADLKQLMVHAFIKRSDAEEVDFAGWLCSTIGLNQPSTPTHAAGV

[17] = target: BDNF/NT-3 growth factors receptor (Homo sapiens) (UniProt Q16620); conditions: Compound concentration 1000.0 nM
[18] = target: Mitogen-activated protein kinase kinase kinase kinase 5 (Homo sapiens) (UniProt Q9Y4K4); conditions: Compound concentration 1000.0 nM
[19] = target: Ephrin type-A receptor 8 (Homo sapiens) (UniProt P29322); conditions: Compound concentration 1000.0 nM
[20] = target: Serine/threonine-protein kinase 25 (Homo sapiens) (UniProt O00506); conditions: Compound concentration 1000.0 nM
[21] = target: MAP kinase-activated protein kinase 2 (Homo sapiens) (UniProt P49137); conditions: Compound concentration 1000.0 nM
[22] = target: Serine/threonine-protein kinase 24 (Homo sapiens) (UniProt Q9Y6E0); conditions: Compound concentration 1000.0 nM
[23] = test system: Tyrosine-protein kinase ABL1 (Homo sapiens), P00519 [F317L]; conditions: Compound concentration 1000.0 nM
[24] = target: Atypical kinase COQ8A, mitochondrial (Homo sapiens) (UniProt Q8NI60); conditions: Compound concentration 1000.0 nM
[25] = target: Cyclin-dependent kinase-like 1 (Homo sapiens) (UniProt Q00532); conditions: Compound concentration 1000.0 nM
[26] = target: Tyrosine-protein kinase JAK1 (Homo sapiens) (UniProt P23458); conditions: Compound concentration 1000.0 nM
[27] = target: Serine/threonine-protein kinase BRSK1 (Homo sapiens) (UniProt Q8TDC3); conditions: Compound concentration 1000.0 nM
[28] = test system: Hepatocyte growth factor receptor (Homo sapiens), P08581 [M1250T]; conditions: Compound concentration 1000.0 nM
[29] = target: Non-receptor tyrosine-protein kinase TYK2 (Homo sapiens) (UniProt P29597); conditions: Compound concentration 1000.0 nM
[30] = target: Serine/threonine-protein kinase TNNI3K (Homo sapiens) (UniProt Q59H18); conditions: Compound concentration 1000.0 nM
[31] = target: cGMP-dependent protein kinase 2 (Homo sapiens) (UniProt Q13237); conditions: Compound concentration 1000.0 nM
[32] = test system: Hepatocyte growth factor receptor (Homo sapiens), P08581 [Y1235D]; conditions: Compound concentration 1000.0 nM
[33] = test system: Serine/threonine-protein kinase B-raf (Homo sapiens), P15056 [V600E]; conditions: Compound concentration 1000.0 nM
[34] = target: Epidermal growth factor receptor (Homo sapiens) (UniProt P00533); conditions: Compound concentration 1000.0 nM

5-hydroxytryptamine receptor 1E (Homo sapiens), sequence (P28566 whole entry): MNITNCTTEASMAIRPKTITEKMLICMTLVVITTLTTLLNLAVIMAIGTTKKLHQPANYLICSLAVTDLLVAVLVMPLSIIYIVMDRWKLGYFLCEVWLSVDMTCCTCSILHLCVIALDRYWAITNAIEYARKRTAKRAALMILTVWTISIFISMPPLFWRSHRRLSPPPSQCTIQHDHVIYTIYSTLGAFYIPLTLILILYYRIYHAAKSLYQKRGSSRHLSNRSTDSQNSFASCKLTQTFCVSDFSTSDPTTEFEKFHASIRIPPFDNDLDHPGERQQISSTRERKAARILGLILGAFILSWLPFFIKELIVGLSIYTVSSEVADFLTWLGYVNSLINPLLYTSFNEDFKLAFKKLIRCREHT
Serine/threonine-protein kinase BRSK1 (Homo sapiens), sequence (Q8TDC3 whole entry): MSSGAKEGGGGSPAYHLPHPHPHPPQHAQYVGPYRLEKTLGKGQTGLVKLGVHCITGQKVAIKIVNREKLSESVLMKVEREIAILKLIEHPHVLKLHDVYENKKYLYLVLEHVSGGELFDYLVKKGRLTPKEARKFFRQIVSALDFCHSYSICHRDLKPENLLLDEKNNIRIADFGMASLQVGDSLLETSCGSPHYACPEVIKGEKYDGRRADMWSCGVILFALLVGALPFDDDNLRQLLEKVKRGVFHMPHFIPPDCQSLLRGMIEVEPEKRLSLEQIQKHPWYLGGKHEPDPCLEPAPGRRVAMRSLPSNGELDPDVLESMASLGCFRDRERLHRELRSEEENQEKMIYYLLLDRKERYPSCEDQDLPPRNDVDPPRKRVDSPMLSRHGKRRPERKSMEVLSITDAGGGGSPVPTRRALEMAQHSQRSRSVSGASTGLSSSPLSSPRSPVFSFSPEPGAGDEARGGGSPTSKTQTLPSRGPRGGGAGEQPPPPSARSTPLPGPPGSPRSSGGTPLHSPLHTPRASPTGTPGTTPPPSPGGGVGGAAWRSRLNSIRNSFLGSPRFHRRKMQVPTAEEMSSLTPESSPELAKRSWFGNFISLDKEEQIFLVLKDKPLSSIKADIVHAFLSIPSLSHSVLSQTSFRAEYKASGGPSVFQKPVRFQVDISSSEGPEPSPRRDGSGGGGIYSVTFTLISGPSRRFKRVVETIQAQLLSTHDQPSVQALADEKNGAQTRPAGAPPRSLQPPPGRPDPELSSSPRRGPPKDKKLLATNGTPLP

CC1=C(C#N)C(c2ccc3[nH]nc(C)c3c2)C(C#N)=C(C)N1 [BAY-474]
inactive: inhibition [1] 8.21% | inhibition [2] 9% | inhibition [3] -2% | inhibition [4] 2% | inhibition [5] -3% | inhibition [6] -4.65% | inhibition [7] 8.04% | inhibition [8] -9.08% | inhibition [9] 23.9% | inhibition [10] -5.32% | inhibition [11] -10% | inhibition [12] 13.9% | inhibition [13] 5.48% | inhibition [14] -5%

CC1=C(C#N)[C@@H](c2ccc3[nH]nc(C)c3c2)C(C#N)=C(c2ccc(Cl)cc2)N1 [BAY-827]
active: residual activity [28] 25.1%
inactive: residual activity [15] 100% | residual activity [16] 100% | inhibition [1] -3.84% | residual activity [17] 85.2% | residual activity [18] 54% | residual activity [19] 100% | inhibition [6] -1.57% | inhibition [7] 4.71% | residual activity [20] 100% | residual activity [21] 100% | residual activity [22] 100% | residual activity [23] 94.2% | residual activity [24] 97.8% | residual activity [25] 77.1% | inhibition [8] 14.6% | residual activity [26] 100% | residual activity [27] 100% | inhibition [9] 23.4% | inhibition [10] 2.67% | residual activity [29] 73.1% | residual activity [30] 94.3% | residual activity [31] 100% | inhibition [12] 8.17% | residual activity [32] 52.6% | inhibition [13] 9.95% | residual activity [33] 100% | residual activity [34] 100%

Source: ChEMBL document CHEMBL4507263, “Data for DCP probe BAY-474” (2021)
